What all share (format): functional, cell-based
The test system of one experiment is Huh-7. In words: Antiproliferative activity against human Huh-7 cells assessed as reduction in cell viability after 48 hr by CCK-8 assay. Particulars: Huh-7, 48 h.
A further experiment relates to HepG2. Kind of experiment: Antiproliferative activity against human HepG2 cells assessed as reduction in cell viability after 48 hr by CCK-8 assay. Particulars: HepG2, 48 h.
Experiment [1] can be described thus: Antiproliferative activity against rat MRMT-1 cells assessed as reduction in cell viability after 48 hr by CCK-8 assay. Particulars: MRMT-1, 48 h.

Molecules are shown by their SMILES. Where a SMILES comes first, the peptide text is derived from it. [ ]: non-standard residue; d: D form. ξ: configuration not given here. NMeF = CN[C@@H](Cc1ccccc1)C(=O)O; Hica(2S) = CC(C)C[C@H](O)C(=O)O; ξLac(3-iPr) = CC(C)CC(O)C(=O)O

Turning to `COC(=O)/C=C/c1c(CC=C(C)C)ncn1C`, the IC50 (in the experiment on Huh-7; in the experiment with HepG2; in experiment [1]) was more than 50 µM each time.

For `CC(C)[C@H]1OC(=O)[C@H](Cc2ccccc2)N(C)C(=O)[C@@H](C(C)C)OC(=O)[C@H](Cc2ccccc2)N(C)C(=O)[C@@H](C(C)C)OC(=O)[C@H](Cc2ccccc2)N(C)C1=O`, the IC50 with Huh-7 amounted to 4.3 µM; in the experiment with HepG2, 1 µM; in experiment [1], 8.7 µM.

`CCC(C)[C@H]1OC(=O)[C@H](C(C)C)N(C)C(=O)[C@@H](C(C)CC)OC(=O)[C@H](CC(C)C)N(C)C(=O)[C@@H](C(C)CC)OC(=O)[C@H](C(C)C)N(C)C1=O` (stereo partly specified): the IC50 was 3.3 µM in the experiment with Huh-7, 1.4 µM in the experiment with HepG2 and 2.8 µM in experiment [1].

Take `CC[C@H](C)[C@H]1OC(=O)[C@H](C(C)C)N(C)C(=O)[C@@H](C(C)C)OC(=O)[C@H](C(C)C)N(C)C(=O)[C@@H]([C@@H](C)CC)OC(=O)[C@H](C(C)C)N(C)C1=O`: the IC50 with Huh-7 stood at 6.2 µM; in the experiment with HepG2, 2.8 µM; in experiment [1] it was 2.7 µM.

As to `CC(C)(O)[C@H]1Cc2cc(C=O)ccc2O1`, the 50% inhibitory concentration (IC50) (with Huh-7; in the experiment with HepG2; in experiment [1]) was more than 50 µM each time.

In the case of `CCCCCCCC(=O)O[C@@H]1[C@](N)(C(=O)O)CC[C@]1(O)c1ccccc1`, the IC50 (in the experiment with Huh-7; with HepG2; in experiment [1]) was more than 50 µM throughout.

With `CC(=O)CC(O)Cc1cc2cc(O)cc(O)c2c(=O)o1` (stereo unspecified), the IC50 (with Huh-7; in the experiment on HepG2; in experiment [1]) was more than 50 µM in each case.

On to `CCCCC/C=C\CCC(=O)O[C@@H]1[C@](N)(C(=O)O)CC[C@]1(O)c1ccccc1`, for which the IC50 (with Huh-7; in the experiment on HepG2; in experiment [1]) was more than 50 µM in each case.

Turning to `CCC(C)[C@H]1OC(=O)[C@H](C(C)C)N(C)C(=O)[C@@H](C(C)CC)OC(=O)[C@H](C(C)C)N(C)C(=O)[C@@H](C(C)CC)OC(=O)[C@H](C(C)C)N(C)C1=O` (stereo partly specified), the results for the IC50 (in the experiment on Huh-7; in the experiment with HepG2; in experiment [1]) were 9.1 µM, 3.3 µM and 6.8 µM, respectively.

In the case of `CCCCC/C=C\CCC(=O)OC1=C(c2ccccc2)CCC1=O`, the IC50 (with Huh-7; in the experiment on HepG2; in experiment [1]) was more than 50 µM in each case.

Take `CCCCCCCC(=O)OC1=C(c2ccccc2)CCC1=O`: the IC50 (in the experiment with Huh-7; in the experiment with HepG2; in experiment [1]) was more than 50 µM in each case.

In the case of `CC(C)CC1OC(=O)[C@H](Cc2ccccc2)NC(=O)[C@H](Cc2ccccc2)NC(=O)[C@H](Cc2ccccc2)NC(=O)[C@H](Cc2ccccc2)NC(=O)[C@H](Cc2c[nH]c3ccccc23)NC1=O` (stereo partly specified) (cyclo(FFFF[ξLac(3-iPr)]W)), the results for the IC50 (with Huh-7; in the experiment with HepG2; in experiment [1]) were 30.3 µM, 15.4 µM and 17.3 µM, respectively.

Regarding `CC(C)CC1OC(=O)[C@H](Cc2ccccc2)NC(=O)[C@H](Cc2ccccc2)NC(=O)[C@H](Cc2ccccc2)NC(=O)[C@H](Cc2ccc(O)cc2)NC1=O` (stereo partly specified) (cyclo(FFF[ξLac(3-iPr)]Y)), the results for the IC50 (with Huh-7; with HepG2; in experiment [1]) were 46.2 µM, 10.7 µM and more than 50 µM, respectively.

In the case of `CC(C)C[C@@H]1OC(=O)[C@H](Cc2ccccc2)N(C)C(=O)[C@@H]2CCCN2C(=O)[C@H](C(C)C)NC(=O)[C@H](Cc2ccccc2)NC(=O)[C@@H]2CCCN2C(=O)[C@@H]2CCCN2C1=O` (cyclo(FVP[NMeF][Hica(2S)]PP)), the figures for the half-maximal inhibitory concentration (IC50) (in the experiment on Huh-7; with HepG2; in experiment [1]) were more than 50 µM, 20.1 µM and more than 50 µM, respectively.

On to `CCC(C)C1NC(=O)C(CC(C)C)NC(=O)C(C(C)CC)NC(=O)C(CC(C)C)NC(=O)C(CC(C)C)NC1=O` (stereo unspecified) (cyclo(ILILL); configuration not given here), for which the results for the IC50 (with Huh-7; with HepG2; in experiment [1]) were more than 50 µM, 14.1 µM and more than 50 µM, respectively.

Take `O=c1[nH]cc(F)c(=O)[nH]1` [FLUOROURACIL]: the IC50 amounted to 30.3 µM with Huh-7, 36.1 µM with HepG2 and 25.7 µM in experiment [1].

For `CN1C(=O)[C@@](C)(O)C(=O)[C@@H]1Cc1ccc2c(c1)CC(C(C)(C)O)O2` (stereo partly specified) [RIGIDIUSCULAMIDE C], the IC50 (with Huh-7; in the experiment on HepG2; in experiment [1]) was more than 50 µM throughout.

The values above are taken from ChEMBL document CHEMBL5126657, “Cytotoxic Cyclodepsipeptides and Cyclopentane Derivatives from a Plant-Associated Fungus Fusarium sp” (J Nat Prod, 2022).
